Test results: US20260200849A1, “CATIONIC LIPIDS AND PREPARATION METHOD THEREOF” (RiboX Therapeutics HK Limited, priority 2024, published 2026)

What was measured:
[1] = RNA encapsulation efficacy (EE %) by Quant-IT Ribogreen kit; assay type: physicochemical; conditions: LNP, Formulation No. 001, RNA No. 331
Protocol: (§1) The LNP size and polydispersity index (PDI), determined by dynamic light scattering (DLS), and zeta potential were measured by a Zetasizer machine (Malvern). RNA concentration and encapsulation efficacy (EE %) were analyzed by the Quant-IT Ribogreen kit by calculating the percentage encapsulation at 100%—(RNA-LNPs/RNA-LNPs with Triton X-100).

C57BL/6J mice = experiment: In vivo expression by IV, 1.0 mg/kg luciferase RNA-LNPs, whole-body and organ IVIS luminescence; conditions: Formulation No. 001, RNA No. 331; male C57BL/6J mice, 1.0 mg*kg−1 intravenous, 24-hours post injection
Protocol: (§2) 6-8 week old, male C57BL/6J mice (N=3) were injected with 1.0 mg*kg−1 of RNA-LNPs encoding for firefly-luciferase by intravenous injection. At 24-hours post injection, animals were intraperitoneally injected with 15 mg/ml of Luciferin substrate and whole-body/liver/spleen/kidney/small intestine/large intestine luminescence were determined by a bioluminescent in vivo imaging system (IVIS).
as §2, with “mg/nil” for “mg/ml”

Hep G2 cells [2] = experiment: In vitro toxicity: Hep G2 cell viability by CellTiter-Glo; assay type: cell-based; conditions: Formulation No. 001, RNA No. 331, 1 μg/mL RNA-LNPs, 72 hours post transfection, cell only = 100%
Protocol: 2E5 Hep G2 cells were transfected with 1 μg/mL RNA-LNPs. At 72 hours post transfection, cell viability (2-well repeat) was determined with the CellTiter-Glo® reagent kit, according to the kit protocol, measured by a luminometer. Cell only as control (100%).
The cell viability was calculated according to the following formula: […]

Hep G2 cells [3] = experiment: In vitro expression: luciferase activity in Hep G2 cells transfected with RNA-LNPs; assay type: cell-based; conditions: Formulation No. 001, RNA No. 331 (firefly-luciferase), 100 ng/mL RNA-LNPs, 72 hours post transfection
Protocol: 2E5 Hep G2 cells were transfected with 100 ng/mL of RNA-LNPs encoding for firefly-luciferase. At 72 hours post transfection, the cells were washed and lysed. The luciferase expression (2-well repeat) was determined in the cell lysates with the luciferase assay reagent kit (Promega), according to the kit protocol, luciferase activity was measured by a luminometer.

Balb/c mice = experiment: In vivo expression by IV, 0.05 mg/kg luciferase RNA-LNPs, IVIS luminescence; conditions: Formulation No. 001, RNA No. 331; female Balb/c mice, 0.05 mg*kg−1 intravenous, 24-hours post injection
Protocol: (§3) 7-8 week old, female Balb/c mice (N=3) were injected with 0.05 mg*kg−1 of RNA-LNPs encoding for firefly-luciferase by intravenous injection. At 24- and 72-hours post injection, animals were intraperitoneally injected with 15 mg/mi of Luciferin substrate and whole-body luminescence was determined by a bioluminescent in vivo imaging system (IVIS).
as §3, with “24-hours” for “24- and 72-hours”, “mg/ml” for “mg/mi”, “whole-body/liver/spleen” for “whole-body”

IL-6 = experiment: In vivo tolerability by IV: serum IL-6 by Luminex; design: species or system C57BL/6J mice; conditions: Formulation No. 001, RNA No. 331, male C57BL/6J mice, 1.0 mg*kg/1 intravenous; for IL-6 at 2 h: 2 hours post injection; for IL-6 at 24 h: 24 hours post injection
Protocol: (§4) 6-8 week old, male C57BL/6J mice (N=3) were injected with 1.0 mg*kg/1 of RNA-LNPs encoding for firefly-luciferase by intravenous injection. At 2- and 24-hours post injection, about 40 μL blood was harvested and immediately added to the procoagulant containing tube. Stand for 30 min at room temperature and then centrifuged at 2500 g×10 min to obtain serum. About 15 μL serum samples were aliquoted for cytokine (MCP-1 and IL-6) detection by Luminex (ProcartaPlex Mouse 2-plex, Thermo). PBS group as negative control.
as §4, with “mg*kg−1” for “mg*kg/1”

MCP-1 = experiment: In vivo tolerability by IV: serum MCP-1 by Luminex; design: species or system C57BL/6J mice; conditions: Formulation No. 001, RNA No. 331, male C57BL/6J mice, 1.0 mg*kg/1 intravenous; for MCP-1 at 2 h: 2 hours post injection; for MCP-1 at 24 h: 24 hours post injection
Protocol: as §4
as §4, with “mg*kg−1” for “mg*kg/1”

[4] = LNP size and polydispersity index (PDI) by dynamic light scattering (Zetasizer); assay type: physicochemical; conditions: for Size (nm): Formulation No. 001 (Ionizable lipid:DSPC:cholesterol:DMG-PEG2000 = 50:10:38.5:1.5, N/P 6), RNA No. 331; for PDI: Formulation No. 001, RNA No. 331
Protocol: as §1

For `CCCCC/C=C\C/C=C\CCCCCCCCOC(=O)C(COC(=O)NCCN1CCCCC1)NC(=O)OCCCCCCCCOC(=O)C(CCCCCC)CCCCCCCC` (stereo not drawn) [Lipid 918], the “EE (%)” value [1] was 93.47%, the “Kidney (p/s)” value (C57BL/6J mice) was 1.99E+07 p/s and the “Large intestine (p/s)” value (C57BL/6J mice) was 8.43E+07 p/s. For the same compound, the “Liver (p/s)” value (C57BL/6J mice) was 4.67E+09 p/s, the “Small intestine (p/s)” value (C57BL/6J mice) was 6.30E+08 p/s and the “Spleen (p/s)” value (C57BL/6J mice) was 3.95E+08 p/s. For the same compound, the “Whole body (p/s)” value (C57BL/6J mice) was 5.08E+09 p/s, the “In vitro cell viability (%) (Mean)” value (Hep G2 cells [2]) was 85.92% and the “In vitro Expression (Mean)” value (Hep G2 cells [3]) was 1.25E+06. For the same compound, the “Liver (p/s) (Mean)” value (Balb/c mice) was 4.14E+08 p/s, the “Spleen (p/s) (Mean)” value (Balb/c mice) was 7.74E+07 p/s and the “Whole body (p/s) (Mean)” value (Balb/c mice) was 1.21E+09 p/s. The “IL-6 at 2 h” value (IL-6) was 9.3 pg/mL, the “IL-6 at 24 h” value (IL-6) was 4.73 pg/mL and the “MCP-1 at 2 h” value (MCP-1) was 880 pg/mL. The “MCP-1 at 24 h” value (MCP-1) was 300 pg/mL, the “Size (nm)” value [4] was 69.23 nm and the PDI [4] was 0.01.
With `CCCCCCCCC(CCCCCC)C(=O)OCCCCCCCCOC(=O)NC(COC(=O)NCCN1CCCCCC1)C(=O)OCCCCCCCCCCC(=O)OCCCCCC` (stereo not drawn) [Lipid 929] the “EE (%)” value [1] was 95.55%, the “Kidney (p/s)” value (C57BL/6J mice) was 2.14E+07 p/s and the “Large intestine (p/s)” value (C57BL/6J mice) was 9.97E+07 p/s. For the same compound, the “Liver (p/s)” value (C57BL/6J mice) was 3.67E+09 p/s, the “Small intestine (p/s)” value (C57BL/6J mice) was 3.16E+08 p/s and the “Spleen (p/s)” value (C57BL/6J mice) was 4.12E+08 p/s. The “Whole body (p/s)” value (C57BL/6J mice) was 2.83E+09 p/s, the “In vitro cell viability (%) (Mean)” value (Hep G2 cells [2]) was 100.37% and the “In vitro Expression (Mean)” value (Hep G2 cells [3]) was 2.24E+05. The “Liver (p/s) (Mean)” value (Balb/c mice) was 2.99E+08 p/s, the “Spleen (p/s) (Mean)” value (Balb/c mice) was 5.00E+07 p/s and the “Whole body (p/s) (Mean)” value (Balb/c mice) was 1.02E+09 p/s. The “IL-6 at 2 h” value (IL-6) was 14.7 pg/mL, the “IL-6 at 24 h” value (IL-6) was 2.1 pg/mL and the “MCP-1 at 2 h” value (MCP-1) was 783 pg/mL. The “MCP-1 at 24 h” value (MCP-1) was 58.6 pg/mL, the “Size (nm)” value [4] was 67.82 nm and the PDI [4] was 0.01.
In the case of `CCCCCCCCCCCOC(=O)CCCCCOC(=O)C(COC(=O)NCCN1CCCCC1)NC(=O)OCCCCCCCCOC(=O)C(CCCCCC)CCCCCCCC` (stereo not drawn) [Lipid 923], the “EE (%)” value [1] was 88.91%, the “Kidney (p/s)” value (C57BL/6J mice) was 5.13E+06 p/s and the “Large intestine (p/s)” value (C57BL/6J mice) was 5.94E+07 p/s. The “Liver (p/s)” value (C57BL/6J mice) was 1.44E+09 p/s, the “Small intestine (p/s)” value (C57BL/6J mice) was 3.01E+08 p/s and the “Spleen (p/s)” value (C57BL/6J mice) was 3.85E+08 p/s. For the same compound, the “Whole body (p/s)” value (C57BL/6J mice) was 2.42E+09 p/s, the “In vitro cell viability (%) (Mean)” value (Hep G2 cells [2]) was 88.59% and the “In vitro Expression (Mean)” value (Hep G2 cells [3]) was 7.34E+05. For the same compound, the “Liver (p/s) (Mean)” value (Balb/c mice) was 4.09E+08 p/s, the “Spleen (p/s) (Mean)” value (Balb/c mice) was 5.03E+07 p/s and the “Whole body (p/s) (Mean)” value (Balb/c mice) was 1.57E+09 p/s. For the same compound, the “IL-6 at 2 h” value (IL-6) was 11.9 pg/mL, the “IL-6 at 24 h” value (IL-6) was 2.37 pg/mL and the “MCP-1 at 2 h” value (MCP-1) was 639 pg/mL. The “MCP-1 at 24 h” value (MCP-1) was 75 pg/mL, the “Size (nm)” value [4] was 81.29 nm and the PDI [4] was 0.03.
In the case of `CCCCC/C=C\C/C=C\CCCCCCCCOC(=O)C(COC(=O)NCCN1CCCCCC1)NC(=O)OCCCCCCCCOC(=O)C(CCCCCC)CCCCCCCC` (stereo not drawn) [Lipid 919], the “EE (%)” value [1] was 96.20%, the “Kidney (p/s)” value (C57BL/6J mice) was 1.88E+07 p/s and the “Large intestine (p/s)” value (C57BL/6J mice) was 1.29E+08 p/s. For the same compound, the “Liver (p/s)” value (C57BL/6J mice) was 3.54E+09 p/s, the “Small intestine (p/s)” value (C57BL/6J mice) was 6.16E+08 p/s and the “Spleen (p/s)” value (C57BL/6J mice) was 6.74E+08 p/s. For the same compound, the “Whole body (p/s)” value (C57BL/6J mice) was 6.01E+09 p/s, the “In vitro cell viability (%) (Mean)” value (Hep G2 cells [2]) was 82.59% and the “In vitro Expression (Mean)” value (Hep G2 cells [3]) was 4.10E+05. For the same compound, the “Liver (p/s) (Mean)” value (Balb/c mice) was 5.47E+08 p/s, the “Spleen (p/s) (Mean)” value (Balb/c mice) was 2.28E+08 p/s and the “Whole body (p/s) (Mean)” value (Balb/c mice) was 1.86E+09 p/s. The “IL-6 at 2 h” value (IL-6) was 25.8 pg/mL, the “IL-6 at 24 h” value (IL-6) was 5.07 pg/mL and the “MCP-1 at 2 h” value (MCP-1) was 1290 pg/mL. For the same compound, the “MCP-1 at 24 h” value (MCP-1) was 256 pg/mL, the “Size (nm)” value [4] was 66.17 nm and the PDI [4] was 0.02.
